Laboratory results published in publication PMC6004018, “Dual-functional peptide with defective interfering genes effectively protects mice against avian and seasonal influenza” (Nature Communications, 2018).
Values after ≈ are worked out from the molar mass of the structure shown. Like-named read-outs stand apart in the source and are kept apart here. Residues, ends and D or L forms follow the SMILES beside them.

What was measured:
A(H1N1)pdm09 virus [1] = assay type: cell-based
[2] = tested on: endosomal acidification in MDCK cells; test: Endosomal acidification analysis in live cells; assay type: cell-based, canine; settings: pHrodo Red dextran, P1 25.0 μg ml-1, TAT-P1 3.1 μg ml-1, bafilomycin A1 100.0 nM, PA1 25.0 μg ml-1
[3] = tested on: HA-mediated membrane fusion (H7N7 HA in 293T cells); settings: pH 5
[4] = target: viral HA protein (H1N1 glycoprotein HA1) (Influenza A virus, UniProt C3W5S1); settings: ELISA (peptide 0.1 μg per well, HA1 2 μg ml-1) and western blot (peptide 1 μg)
Chain of viral HA protein (H1N1 glycoprotein HA1) (C3W5S1 18-344 limits assumed): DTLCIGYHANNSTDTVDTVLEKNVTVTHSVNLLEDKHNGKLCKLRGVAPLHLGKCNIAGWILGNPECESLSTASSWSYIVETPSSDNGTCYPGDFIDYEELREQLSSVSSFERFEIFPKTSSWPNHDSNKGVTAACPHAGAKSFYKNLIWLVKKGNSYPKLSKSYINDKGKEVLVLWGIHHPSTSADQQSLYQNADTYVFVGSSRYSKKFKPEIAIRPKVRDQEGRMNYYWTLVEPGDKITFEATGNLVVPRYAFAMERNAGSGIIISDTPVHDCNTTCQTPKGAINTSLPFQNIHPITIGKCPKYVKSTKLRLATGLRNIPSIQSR

293T cells [5] = test: MTT cytotoxicity assay in 293T cells; settings: 24 h incubation at 37 °C, DMEM with 1% FBS, three independent experiments
A(H7N7) virus [6] = settings: 1 h, pH 7.4
MDCK cells = test: MTT cytotoxicity assay in MDCK cells; settings: 24 h incubation at 37 °C, DMEM with 1% FBS, three independent experiments
293T cells [7] = tested on: 293T cells
A(H7N7) virus [8] = tested on: A(H7N7) virus; set-up: species or system BALB/c female mice; settings: mouse, in vivo
A(H1N1)pdm09 virus [9] = settings: 1 h, pH 7.4
endosomal acidification = settings: cited from earlier work
A(H7N7) virus [10] = assay type: cell-based
A(H1N1)pdm09 virus [11] = tested on: A(H1N1)pdm09 virus; set-up: species or system BALB/c female mice; settings: mouse, in vivo
A(H1N1)pdm09 virus [12] = tested on: A(H1N1)pdm09 virus; set-up: species or system BALB/c female mice; settings: in vivo

CO/C1=C\C(C)=C\[C@@H](C)[C@@H](O)[C@@H](C)C/C(C)=C/C=C/[C@H](OC)[C@@H]([C@@H](C)[C@@H](O)[C@H](C)[C@@]2(O)C[C@@H](O)[C@H](C)[C@@H](C(C)C)O2)OC1=O [Bafilomycin A1, reference compound]
block of viral RNP release into the nuclei (A(H1N1)pdm09 virus [1]): blocked viral RNP release into the nuclei | prevention of endosomal acidification [2]: prevented endosomal acidification

CC[C@H](C)[C@H](NC(=O)[C@H](CCC(N)=O)NC(=O)[C@H](CCCNC(=N)N)NC(=O)[C@H](Cc1ccccc1)NC(=O)[C@H](C)NC(=O)[C@@H](NC(=O)[C@@H]1CCCN1C(=O)[C@H](CS)NC(=O)[C@@H]1CCCN1C(=O)CNC(=O)[C@H](Cc1c[nH]c2ccccc12)NC(=O)[C@@H](N)CS)[C@@H](C)O)C(=O)NCC(=O)N[C@@H](CC(N)=O)C(=O)N[C@@H](CS)C(=O)NCC(=O)N[C@@H](CCCNC(=N)N)C(=O)N[C@@H](Cc1ccccc1)C(=O)N[C@@H](CCCNC(=N)N)C(=O)N[C@H](C(=O)N[C@@H](CCCNC(=N)N)C(=O)N[C@@H](CS)C(=O)N[C@@H](CS)C(=O)N[C@@H](CCCNC(=N)N)C(=O)N[C@H](C(=O)N[C@@H](CCCNC(=N)N)C(=O)O)[C@@H](C)CC)C(C)C [P1] (H-CWGPCPTAFRQIGNCGRFRVRCCRIR-OH)
inhibition of HA-mediated membrane fusion [3]: did not inhibit HA-mediated membrane fusion | binding to viral HA protein [4]: bind to viral HA protein | inhibition of viral replication in 293T cells (H7N7 virus): significantly inhibit viral replication | CC50 (293T) (293T cells [5]): > 400 mg/L | block of viral RNP release into the nuclei (A(H1N1)pdm09 virus [1]): blocked viral RNP release into the nuclei | IC50 (H7N7) (A(H7N7) virus [6]): 1.56 mg/L (≈ 0.51 µM) | prevention of endosomal acidification [2]: prevented endosomal acidification | CC50 (MDCK) (MDCK cells): > 400 mg/L | concentration that significantly enhances the transfection efficiency of plasmid DNA (293T cells [7]): 12.5

N=C(N)NCCC[C@H](NC(=O)[C@H](CCCNC(=N)N)NC(=O)[C@H](CCCNC(=N)N)NC(=O)[C@H](CCC(N)=O)NC(=O)[C@H](CCCNC(=N)N)NC(=O)[C@H](CCCNC(=N)N)NC(=O)[C@H](CCCCN)NC(=O)[C@H](CCCCN)NC(=O)[C@H](CCCNC(=N)N)NC(=O)CNC(=O)[C@@H](N)Cc1ccc(O)cc1)C(=O)O [TAT, reference compound]
CC50 (293T) (293T cells [5]): > 400 mg/L | CC50 (MDCK) (MDCK cells): > 400 mg/L

CC[C@H](C)[C@H](NC(=O)[C@H](CCC(N)=O)NC(=O)[C@H](CCCNC(=N)N)NC(=O)[C@H](Cc1ccccc1)NC(=O)[C@H](C)NC(=O)[C@@H](NC(=O)[C@@H]1CCCN1C(=O)[C@H](CS)NC(=O)[C@@H]1CCCN1C(=O)CNC(=O)[C@H](Cc1c[nH]c2ccccc12)NC(=O)[C@H](CS)NC(=O)[C@H](CCCNC(=N)N)NC(=O)[C@H](CCCNC(=N)N)NC(=O)[C@H](CCCNC(=N)N)NC(=O)[C@H](CCC(N)=O)NC(=O)[C@H](CCCNC(=N)N)NC(=O)[C@H](CCCNC(=N)N)NC(=O)[C@H](CCCCN)NC(=O)[C@H](CCCCN)NC(=O)[C@H](CCCNC(=N)N)NC(=O)CNC(=O)[C@@H](N)Cc1ccc(O)cc1)[C@@H](C)O)C(=O)NCC(=O)N[C@@H](CC(N)=O)C(=O)N[C@@H](CS)C(=O)NCC(=O)N[C@@H](CCCNC(=N)N)C(=O)N[C@@H](Cc1ccccc1)C(=O)N[C@@H](CCCNC(=N)N)C(=O)N[C@H](C(=O)N[C@@H](CCCNC(=N)N)C(=O)N[C@@H](CS)C(=O)N[C@@H](CS)C(=O)N[C@@H](CCCNC(=N)N)C(=O)N[C@H](C(=O)N[C@@H](CCCNC(=N)N)C(=O)O)[C@@H](C)CC)C(C)C [TAT-P1] (H-YGRKKRRQRRRCWGPCPTAFRQIGNCGRFRVRCCRIR-OH)
weight ratio (peptide:DNA) at which complexes with DNA form (plasmid DNA): > 2 | inhibition of HA-mediated membrane fusion [3]: did not inhibit HA-mediated membrane fusion | binding to viral HA protein [4]: bind to viral HA protein | inhibition of viral replication in 293T cells (H7N7 virus): significantly inhibit viral replication | block of viral RNP release into the nuclei (A(H1N1)pdm09 virus [1]): blocked viral RNP release into the nuclei | survival (A(H7N7) virus [8]): 30% | IC50 (H1N1) (A(H1N1)pdm09 virus [9]): 0.67 mg/L (≈ 0.146 µM) | IC50 (H7N7) (A(H7N7) virus [6]): 0.56 mg/L (≈ 0.122 µM) | prevention of endosomal acidification [2]: prevented endosomal acidification

CC[C@H](C)[C@H](NC(=O)[C@H](CCCNC(=N)N)NC(=O)[C@H](CS)NC(=O)[C@H](CS)NC(=O)[C@H](CCCNC(=N)N)NC(=O)[C@@H](NC(=O)[C@H](CCCNC(=N)N)NC(=O)[C@H](Cc1ccccc1)NC(=O)[C@H](CCCNC(=N)N)NC(=O)CNC(=O)[C@H](CS)NC(=O)[C@H](CC(N)=O)NC(=O)[C@H](CCCNC(=N)N)NC(=O)[C@H](CCCCN)NC(=O)[C@H](CCCNC(=N)N)NC(=O)[C@H](Cc1ccccc1)NC(=O)[C@H](C)NC(=O)[C@H](CCCNC(=N)N)NC(=O)[C@@H]1CCCN1C(=O)[C@H](CS)NC(=O)[C@@H]1CCCN1C(=O)[C@H](CCCNC(=N)N)NC(=O)[C@H](Cc1c[nH]c2ccccc12)NC(=O)[C@H](CS)NC(=O)[C@H](CCCNC(=N)N)NC(=O)[C@H](CCCNC(=N)N)NC(=O)[C@H](CCCNC(=N)N)NC(=O)[C@H](CCC(N)=O)NC(=O)[C@H](CCCNC(=N)N)NC(=O)[C@H](CCCNC(=N)N)NC(=O)[C@H](CCCCN)NC(=O)[C@H](CCCCN)NC(=O)[C@H](CCCNC(=N)N)NC(=O)CNC(=O)[C@@H](N)Cc1ccc(O)cc1)[C@@H](C)CC)C(=O)N[C@@H](CCCNC(=N)N)C(=O)O [TAT-P2] (H-YGRKKRRQRRRCWRPCPRAFRKRNCGRFRIRCCRIR-OH; N-terminus and C-terminus assumed)
IC50 (H1N1) (A(H1N1)pdm09 virus [9]): 0.76 mg/L (≈ 0.16 µM) | IC50 (H7N7) (A(H7N7) virus [6]): 0.97 mg/L (≈ 0.204 µM)

CC[C@H](C)[C@H](NC(=O)[C@H](CCCNC(=N)N)NC(=O)[C@H](CS)NC(=O)[C@H](CCCNC(=N)N)NC(=O)[C@@H](NC(=O)[C@H](CCCNC(=N)N)NC(=O)[C@H](Cc1ccccc1)NC(=O)[C@H](CCCNC(=N)N)NC(=O)CNC(=O)[C@H](CS)NC(=O)[C@H](CC(C)C)NC(=O)[C@H](CCC(N)=O)NC(=O)[C@H](CCCNC(=N)N)NC(=O)[C@H](Cc1ccccc1)NC(=O)[C@H](CO)NC(=O)[C@@H]1CCCN1C(=O)[C@H](CS)NC(=O)[C@@H]1CCCN1C(=O)[C@H](CCCNC(=N)N)NC(=O)[C@H](Cc1c[nH]c2ccccc12)NC(=O)[C@H](CS)NC(=O)[C@H](CCCNC(=N)N)NC(=O)[C@H](CCCNC(=N)N)NC(=O)[C@H](CCCNC(=N)N)NC(=O)[C@H](CCC(N)=O)NC(=O)[C@H](CCCNC(=N)N)NC(=O)[C@H](CCCNC(=N)N)NC(=O)[C@H](CCCCN)NC(=O)[C@H](CCCCN)NC(=O)[C@H](CCCNC(=N)N)NC(=O)CNC(=O)[C@@H](N)Cc1ccc(O)cc1)[C@@H](C)CC)C(=O)N[C@@H](CCCNC(=N)N)C(=O)O [TAT-P3] (H-YGRKKRRQRRRCWRPCPSFRQLCGRFRIRCRIR-OH; N-terminus and C-terminus assumed)
IC50 (H1N1) (A(H1N1)pdm09 virus [9]): 0.68 mg/L (≈ 0.156 µM) | IC50 (H7N7) (A(H7N7) virus [6]): 0.78 mg/L (≈ 0.179 µM)

CCN(CC)CCCC(C)Nc1ccnc2cc(Cl)ccc12 (centres unmarked) [chloroquine]
effective concentrations for inhibiting endosomal acidification (endosomal acidification): ~ 100 μM

CC(=O)N[C@H]1[C@H]([C@H](O)[C@H](O)CO)OC(C(=O)O)=C[C@@H]1N=C(N)N [zanamivir]
susceptibility of virus to zanamivir (A(H7N7) virus [10]): reduced susceptibility | body weight loss (A(H7N7) virus [8]): significantly less body weight loss | survival (A(H7N7) virus [8]): 40% | survival (A(H1N1)pdm09 virus [11]): 90% | viral titers / viral replication in mouse lungs (A(H1N1)pdm09 virus [12]): significantly reduced | IL-6 expression in mice (A(H1N1)pdm09 virus [12]; mouse): significantly reduced | body weight loss (A(H1N1)pdm09 virus [12]; mouse): significantly reduced | survival (A(H1N1)pdm09 virus [12]; mouse): 90%
